From patent US12702674B2, “Methods for producing chemoembolic agents for the delivery of anti-cancer agents” (University of Utah Research Foundation, priority 2017, dated 2026)
Counter-ions that a name gives are not always drawn.

Columns and labels:
[1] = In vitro drug release from 12% SELP-815K gels (RP-HPLC); format: physicochemical; details: day 30
Description: (§1) For dual drugs, drug loading was 12.5 mg/mL for each drug, for a total drug loading of 25 mg/mL. Samples were chilled on ice until tested. Samples incorporating powder drug in 12% w/w SELP-815K were prepared without dilution; however, the volume addition of the powdered drug was not considered in the calculation of the SELP concentration. Samples with powdered drug were tested at 25 and 50 mg/mL for single drug loaded samples and 25 mg/mL per drug for dual drug loaded samples.
The drug loaded SELP solutions were drawn into 0.5 cd insulin syringes and incubated overnight at 37° C. followed by cutting into gel disks as previously described. Weights were recorded. Individual gels were placed into 8 dram glass vials, to which 25 mL of release media consisting of 1×PBS, 1% SDS was added. The elution volume was chosen to ensure sink conditions and complete dissolution of both drugs, if all drug eluted immediately. […]
Drug content in the release media was detected by reverse phase high performance liquid chromatography (RP-HPLC; Agilent Technologies, Santa Clara, CA) using a RPC18 X-Terra column (4.6×250 mm, 5 µm particle size; Waters, Milford, MA) and a guard column of the same packing material. […] Percent cumulative release was calculated using the experimental drug loading per disk based on the pre-release weight.

[2] = In vitro drug release from 9% SELP-815K gels (RP-HPLC); format: physicochemical; details: for cumulative release of sorafenib: 9% SELP-815K, 14-day release
Description: (§2) SELP-815K formulations were prepared at 12% w/w in 1× phosphate buffered saline (PBS). Powder drugs were milled for 12 hours to reduce crystal size and variability using a custom built ball mill. Milled samples were inspected microscopically to verify homogeneity. Two methods of drug incorporation were investigated. […] Drug loading concentration was chosen based on manufacturer specified loading of doxorubicin in DEBs. The same loading was used for sorafenib.
as §1
The drug loaded SELP solutions were drawn into 0.5 cd insulin syringes and incubated overnight at 37° C. followed by cutting into gel disks as previously described. Weights were recorded. Individual gels were placed into 8 dram glass vials, to which 25 mL of release media consisting of 1×PBS, 1% SDS was added. The elution volume was chosen to ensure sink conditions and complete dissolution of both drugs, if all drug eluted immediately.
At predetermined time points of 1 hour, 3 hours, 6 hours, 12 hours, 1 day, 3 days, 5 days, 7 days, 10 days, 14 days, and 20 and 30 days for extended-release studies, a sample volume was removed for analysis and replaced with fresh media. Vials were sealed and maintained in a shaking incubator at 37° C., 120 rpm. The 9% SELP-815K gels underwent release testing for 14 days. The 12% SELP-815K gels were tested for 30 days.
Drug content in the release media was detected by reverse phase high performance liquid chromatography (RP-HPLC; Agilent Technologies, Santa Clara, CA) using a RPC18 X-Terra column (4.6×250 mm, 5 µm particle size; Waters, Milford, MA) and a guard column of the same packing material. The elution gradient at time zero began with mobile phase of 40% 20 mM ammonium acetate and 60% acetonitrile (CAN), which increased to 72% CAN over 9 minutes at a flow rate of 1 mL/min. Percent cumulative release was calculated using the experimental drug loading per disk based on the pre-release weight.

human HCC HepG2 cells = experiment: WST-8 cell viability assay, single agent in vitro toxicity; format: cell-based; details: 72 hours of incubation, media containing 0.5% DMSO, read-out: IC50 Values of Each Drug per HCC Cell Line
Description: (§3) Growth inhibition by the base drugs used in this study was evaluated on three different hepatoma cell lines—two human HCC lines and one rat cell line—using a 2-(2-methoxy-4-nitrophenyl)-3-(4-nitrophenyl)-5-(2,4-disulfophenyl)-2H-tetrazolium monosodium salt (WST-8) cell viability assay (Dojindo Molecular Technologies, Inc., Rockville, MD). Human cell lines Hep3B and HepG2 were obtained from ATCC (Manassas, VA) and cultured in EMEM cell culture medium (ATCC) supplemented with 10% fetal bovine serum (FBS). The rat hepatoma line McA-RH7777 was generously donated by the Larson Lab (Northwestern University, IL). This line was cultured in DMEM cell culture medium (ATCC) supplemented with 10% FBS. All lines were grown at 37° C. in a humidified atmosphere of 5% CO2.
(§4) To prevent precipitation of the drugs, media containing 0.5% DMSO was used throughout all the studies. Doubling times of the cell lines were similar; therefore, cells were plated at the same density of 7,000 cells per well in 96-well plates for 24 hours. Media was removed, cells were washed with PBS, and treatment was applied. Drug concentrations were varied to include data points ranging from non-toxic to highly toxic. Following 72 hours of incubation, the media was removed and cell viability was quantified using the WST-8 assay with a SpectraMax M2 spectrophotometer (Molecular Devices, Sunnyvale, CA).
(§5) Each experiment was performed with N=6, assessing viability at 10 different drug concentrations. Relative cell viability was calculated by normalizing against the UV absorbance of untreated cells. GraphPad Prism was used to plot relative cell viability as a function of log drug concentration with a non-linear least-squares regression analysis and calculation of IC50 values.

Hep3B = experiment: as above; format: cell-based; details: Homo sapiens, 72 hours of incubation, media containing 0.5% DMSO, read-out: IC50 Values of Each Drug per HCC Cell Line
Description: as §3, §4, §5

[3] = tested on: rat hepatoma line McA-RH7777; experiment: as above; format: cell-based; details: 72 hours of incubation, media containing 0.5% DMSO, read-out: IC50 Values of Each Drug per HCC Cell Line
Description: as §3, §4, §5

[4] = Rheological characterization of drug loaded 9% SELP-815K; format: physicochemical; details: SELP solution with dox HCl, as drug powder or DMSO solution, 25 mg/mL
Description: as §2, §1
An AR 550 stress-controlled rheometer from TA Instruments (New Castle, DE) was used for rheological testing. A cone-and-plate configuration equipped with a stainless steel 20 mm diameter, 4 degree geometry was used. An oscillation procedure with a temperature ramp from 18° C. to 37° C. […]

total drug content of doxorubicin released (cumulative release) ([1]; 25 mg/mL single drug loaded and dual drug loaded gels)	cumulative release of doxorubicin ([1]; 50 mg/mL single drug loaded gel)	loaded doxorubicin released in the first day ([2]; 9% SELP-815K gels, base form, in DMSO or powder, first day)	loaded doxorubicin released by day 14 ([2]; 9% SELP-815K gels, base form, day 14)	cumulative release of sorafenib ([2]; DMSO dissolved drug, dual drug loaded gels (12.5 mg/mL each drug))	cumulative release of sorafenib ([2]; DMSO dissolved drug, single drug loaded gel (25 mg/mL))	cumulative release of sorafenib ([2]; powder drug, dual drug loaded gel (12.5 mg/mL each drug))	cumulative release of sorafenib ([2]; powder drug, single drug loaded gel (25 mg/mL))	viscosity relative to the SELP control with no drug [4]	SMILES	IC50 (human HCC HepG2 cells)	IC50 (Hep3B)	IC50 [3]
30%	15%	More than 50%	nearly all of the loaded drug released						COc1cccc2c1C(=O)c1c(O)c3c(c(O)c1C2=O)C[C@@](O)(C(=O)CO)C[C@@H]3O[C@H]1C[C@H](N)[C@H](O)[C@H](C)O1 [Doxorubicin]	620 ± 410 nM	290 ± 40 nM	480 ± 320 nM
				95%	less than 60%	22%	8.7%		CNC(=O)c1cc(Oc2ccc(NC(=O)Nc3ccc(Cl)c(C(F)(F)F)c3)cc2)ccn1 [Sorafenib]	1720 ± 700 nM	3470 ± 200 nM	6880 ± 830 nM
								more than 2 fold	COc1cccc2c1C(=O)c1c(O)c3c(c(O)c1C2=O)C[C@@](O)(C(=O)CO)C[C@@H]3O[C@H]1C[C@H](N)[C@H](O)[C@H](C)O1 [dox HCl, doxorubicin hydrochloride]			
